Laboratory results from article PMC5415745, “Drug-transporter mediated interactions between anthelminthic and antiretroviral drugs across the Caco-2 cell monolayers” (BMC Pharmacology & Toxicology, 2017).
Where “and” joins values, the source holds several entries; their conditions need not be identical. Equal entries are not always repeated. Blank lines part the entries; values can stand above or below the compound they belong to.

Columns and labels:
Caco-2 cell monolayers = experiment: Bidirectional (AP→BL, BL→AP) drug transport across Caco-2 cell monolayers in transwells: cumulative transport, Papp, efflux ratio; HPLC or radiolabeled assay; conditions: for Apical to basal transport / Basal to apical transport: individual experiments 1-3; for Apical to basal transport Mean / Basal to apical transport Mean: n=3; for Apical to basal transport (cumulative, receiver), Mean / Basal to apical transport (cumulative, receiver), Mean: mean n=3
Procedure: (§1) The monolayers used were of between passage 20 and 65 after 15 days of growth. Each experiment was performed in duplicate using two six well-transwell culture plates. The cells were trypsinized as described earlier, and after centrifugation the pellet re-suspended in fresh DMEM (+15%), and the cells counted using a cell counter. A volume of DMEM was added enough to give a cell count of 2 × 10^6 cells per ml, and cells were seeded on the transwell culture plates at a density of 2 × 10^4 cells/cm^2 (~ 100,000 cells per well, since insert membrane growth area = 4.67 cm^2). The plates were then incubated at 37°C and 10% CO2 in a humidified chamber and the media changed every 2-3 days, by aspirating using a suction pump and replacing with an equal volume of DMEM. Transport experiments were conducted 15 to 20 days after seeding. The TEER across the cell monolayers was monitored using a Millicell-ERS in order to assess cell monolayer integrity and the monolayers considered appropriate for the experiment when the TEER values were typically above 500 cm^2 [49, 70].
(§2) Prior to transport studies, each monolayer was washed and equilibrated with the transport medium (DMEM without FBS). The medium was removed from all AP and BL compartments of the transwells and replaced with 2 ml of the transport medium (DMEM alone), to both compartments and equilibrated for 1 h (37°C, 10% CO2 incubator), after which the TEER was re-assessed and labeled. The medium was then removed from both compartments and replaced with an equal volume of pre-warmed medium containing the compound of interest at the appropriate concentration. For the AP → BL transport, 2 ml of medium containing the desired drug was placed in the AP chamber and 2 ml of the medium alone in the BL chamber, whereas 2 ml of medium containing the drug was placed in the BL and 2 ml of medium on the AP chamber for the BL → AP transport [71]. The effect of the second drug was then assessed by adding the medium containing the original drug and the drug under study to the AP side for AP → BL transport with the medium containing the original drug alone in the BL chamber, and vice-versa for the BL → AP transport. Transport in each direction was done in triplicate. The transwell plates were then incubated (37°C, 10% CO2 incubator), and 100μl of the samples from the AP and BL compartments were taken at 60, 120, 180 and 240 min and quantified either by HPLC method described earlier [45], or by the use of a liquid scintillating counter depending on the drug under study. The HPLC method involved liquid - liquid extraction followed by ultra-high performance liquid chromatography using a Hypurity C18 column and ultraviolet detection set at a wavelength of 215 nm. The mobile phase consisted of ammonium formate, acetonitrile and methanol (57:38:5 v/v). Separation was facilitated via isocratic elution at a flow rate of 1.5 ml/min. For HPLC assays, the concentration used for each drug was 20μg/ml. The concentrations that offered the best detection were selected for radiolabeled assay. […] The integrity of the CCM during the experiment was monitored by measuring the TEER at the beginning (0 min) and the end of the experiment (240min).
(§3) The results were expressed as apparent permeability coefficient (Papp, unit: cms^-1), the amount of compound transported per second. Papp values were calculated for both AP to BL (PappAtoB), and BL to AP (PappBtoA) movement of the compound. Papp was calculated using the following equation [52, 72]: • Papp (cm/s) = (dQ/dt) x (1/(ACO) • dQ/dt = Steady-state flux (dpm s^-1 or μmol s^-1) • A = Surface area of the filter (cm^2) • CO = Initial concentration in the donor chamber (dpm litre ^-1 or μM)
(§4) The quotient of secretory permeability and absorptive permeability (PappBL-AP/PappAP-BL) constitutes the efflux ratio, while the reverse (PappAP-BL/PappBL-AP) is the uptake ratio [71].

[1] = as above; conditions: human
Procedure: as §1, §2, §3, §4

[2] = [3H] NVP alone, after 60 min, samples 1-3
[3] = labelled drug is the interacting drug
[4] = Caco-2, Papp AP → BL, mean (n=3) after 60 min, drug A alone, or label 'A + B' = transport of A in presence of interacting drug B, concentrations per Table 1
[5] = Caco-2, Papp BL → AP, mean (n=3) after 60 min, drug A alone, or label 'A + B' = transport of A in presence of interacting drug B, concentrations per Table 1
[6] = 120 min, individual samples 1-3
[7] = 180 min, individual samples 1-3
[8] = 240 min, individual samples 1-3
[9] = mean (n=3) after 60 min, drug A alone, or label 'A + B' = transport of A in presence of interacting drug B, concentrations per Table 1
[10] = samples after 60min, individual samples 1-3

Structure (SMILES): Cc1ccnc2c1NC(=O)c1cccnc1N2C1CC1 [NVP, nevirapine]
- Apical to basal transport (Caco-2 cell monolayers; [3H] NVP alone, 60 min): 78.8 pmol and 80.8 pmol and 79.4 pmol
- Basal to apical transport (Caco-2 cell monolayers; [3H] NVP alone, 60 min): 59.7 pmol and 67.9 pmol and 77.2 pmol
- Apical to basal transport Mean (Caco-2 cell monolayers; [3H] NVP alone, 60 min): 79.68 pmol
- Basal to apical transport Mean (Caco-2 cell monolayers; [3H] NVP alone, 60 min): 68.27 pmol
- Apical to basal transport (Caco-2 cell monolayers; [3H] NVP alone, 120 min): 111.5 pmol and 123.2 pmol and 109.9 pmol
- Basal to apical transport (Caco-2 cell monolayers; [3H] NVP alone, 120 min): 81.9 pmol and 91.5 pmol and 105.1 pmol
- Apical to basal transport Mean (Caco-2 cell monolayers; [3H] NVP alone, 120 min): 114.88 pmol
- Basal to apical transport Mean (Caco-2 cell monolayers; [3H] NVP alone, 120 min): 92.84 pmol
- Apical to basal transport (Caco-2 cell monolayers; [3H] NVP alone, 180 min): 116.3 pmol and 120.3 pmol and 122.0 pmol
- Basal to apical transport (Caco-2 cell monolayers; [3H] NVP alone, 180 min): 92.9 pmol and 107.5 pmol and 118.9 pmol
- Apical to basal transport Mean (Caco-2 cell monolayers; [3H] NVP alone, 180 min): 119.53 pmol
- Basal to apical transport Mean (Caco-2 cell monolayers; [3H] NVP alone, 180 min): 106.41 pmol
- Apical to basal transport (Caco-2 cell monolayers; [3H] NVP alone, 240 min): 123.9 pmol and 122.5 pmol and 120.2 pmol
- Basal to apical transport (Caco-2 cell monolayers; [3H] NVP alone, 240 min): 98.8 pmol and 112.2 pmol and 132.2 pmol
- Apical to basal transport Mean (Caco-2 cell monolayers; [3H] NVP alone, 240 min): 122.19 pmol
- Basal to apical transport Mean (Caco-2 cell monolayers; [3H] NVP alone, 240 min): 114.39 pmol
- Apical to basal transport Conc. Apical (Caco-2 cell monolayers; [2]): 177.1 pmol and 196.6 pmol and 189.3 pmol
- Basal to apical transport Conc. Basal (Caco-2 cell monolayers; [2]): 129.9 pmol and 207.3 pmol and 202.9 pmol
- Efflux ratio ER (Caco-2 cell monolayers; [2]): 0.80
- PappAB Papp (Caco-2 cell monolayers; [2]): 40.3 ×10⁻⁶ cm/s and 34.9 ×10⁻⁶ cm/s
- PappBA Papp (Caco-2 cell monolayers; [2]): 32.1 ×10⁻⁶ cm/s and 31.7 ×10⁻⁶ cm/s
- Effect on the transport of IVM (Caco-2 cell monolayers; [3]): increased
- Effect on the transport of PZQ (Caco-2 cell monolayers; [3]): did not affect
- efflux ratio at 60 min ([1]; Caco-2, Efflux ratio ER, [3H] NVP alone, after 60 min, samples 1-3): 1.03
- Papp A→B at 60 min [1, 4]: 42.7 ×10⁻⁶ cm/s
- Papp B→A at 60 min [1, 5]: 39.5 ×10⁻⁶ cm/s
- Papp A→B at 60 min ([1]; Caco-2, PappAB Papp, [3H] NVP alone, after 60 min, samples 1-3): 52.9 ×10⁻⁶ cm/s
- Papp B→A at 60 min ([1]; Caco-2, PappBA Papp, [3H] NVP alone, after 60 min, samples 1-3): 54.7 ×10⁻⁶ cm/s

- Apical to basal transport (cumulative, receiver) (Caco-2 cell monolayers; 60 min, individual samples 1-3): 0.31 pmoles (2×) and 0.32 pmoles
- Basal to apical transport (cumulative, receiver) (Caco-2 cell monolayers; 60 min, individual samples 1-3): 0.30 pmoles (2×) and 0.25 pmoles
- Apical to basal transport (cumulative, receiver), Mean (Caco-2 cell monolayers; 60 min): 0.32 pmol
- Basal to apical transport (cumulative, receiver), Mean (Caco-2 cell monolayers; 60 min): 0.28 pmol
- Apical to basal transport (cumulative, receiver), Mean (Caco-2 cell monolayers; 120 min): 0.56 pmol
- Basal to apical transport (cumulative, receiver), Mean (Caco-2 cell monolayers; 120 min): 0.53 pmol
- Apical to basal transport (cumulative, receiver), Mean (Caco-2 cell monolayers; 180 min): 0.69 pmol
- Basal to apical transport (cumulative, receiver), Mean (Caco-2 cell monolayers; 180 min): 0.68 pmol
- Apical to basal transport (cumulative, receiver), Mean (Caco-2 cell monolayers; 240 min): 0.82 pmol
- Basal to apical transport (cumulative, receiver), Mean (Caco-2 cell monolayers; 240 min): 0.83 pmol
- Effect on the transport of PZQ (Caco-2 cell monolayers; [3]): did not affect
- Papp AP → BL (Caco-2 cell monolayers; [9]): 16.5 ×10⁻⁶ cm/s
- Papp BL → AP (Caco-2 cell monolayers; [9]): 10.8 ×10⁻⁶ cm/s
- PappAB Papp (Caco-2 cell monolayers; [10]): 15.9 ×10⁻⁶ cm/s and 13.5 ×10⁻⁶ cm/s
- PappBA Papp (Caco-2 cell monolayers; [10]): 9.29 ×10⁻⁶ cm/s and 9.67 ×10⁻⁶ cm/s
- Papp A→B at 60 min [1, 4]: 16.5 ×10⁻⁶ cm/s
- Papp B→A at 60 min [1, 5]: 10.8 ×10⁻⁶ cm/s
- Papp A→B at 60 min ([1]; Caco-2, PappAB, Papp, samples after 60min, individual samples 1-3): 20 ×10⁻⁶ cm/s
- Papp B→A at 60 min ([1]; Caco-2, PappBA, Papp, samples after 60min, individual samples 1-3): 13.4 ×10⁻⁶ cm/s
Structure (SMILES): O=C1Nc2ccc(Cl)cc2[C@@](C#CC2CC2)(C(F)(F)F)O1 [EFV, efavirenz]
- Apical to basal transport (cumulative, receiver) (Caco-2 cell monolayers; [6]): 0.61 pmol and 0.54 pmol and 0.55 pmol
- Basal to apical transport (cumulative, receiver) (Caco-2 cell monolayers; [6]): 0.53 pmol and 0.50 pmol and 0.57 pmol
- Apical to basal transport (cumulative, receiver) (Caco-2 cell monolayers; [7]): 0.67 pmol and 0.70 pmol and 0.71 pmol
- Basal to apical transport (cumulative, receiver) (Caco-2 cell monolayers; [7]): 0.69 pmol and 0.65 pmol and 0.70 pmol
- Apical to basal transport (cumulative, receiver) (Caco-2 cell monolayers; [8]): 0.78 pmol and 0.86 pmol and 0.82 pmol
- Basal to apical transport (cumulative, receiver) (Caco-2 cell monolayers; [8]): 0.86 pmol and 0.78 pmol and 0.84 pmol
